Measured values as given in patent US20160320368A1, “METHOD AND APPARATUS FOR PREDICTING EFFECTIVE DOSE OR SENSITIVITY OF 5-HYDROXY-1H-IMIDAZOLE-4-CARBOXAMIDE, METHOD FOR DETERMINING AMOUNT OF XANTHOSINE MONOPHOSPHATE, AND TREATMENT AGENT AND METHOD FOR TREATING MYELODYSPLASTIC SYNDROME” (FUJIFILM Corporation, priority 2014, published 2016).
Read-outs that look alike come from different tables or passages of the source.

Legend:
[1] = tested on: XMP in blood cells; assay: XMP in blood cells of mice after oral administration; assay type: in vivo, female mice (BALB/cAJcl); settings: 100 mg/kg oral, non-treated = 100%
Description: (§1) A ¾ hydrate of Compound A was used as a test compound.
(§2) 0.5% MC or 0.5% MC of the test compound (100 mg/kg in terms of Compound A) was orally administered to female mice (BALB/cAJcl).
(§3) Whole blood was collected from the postcava of animals under anesthesia by isoflurane inhalation at 1, 4, 8 or 24 hours post-dose, using a polypropylene syringe treated with an ethylenediaminetetraacetic acid disodium salt and a 25 gauge injection needle. BD Pharm Lyse (555899, manufactured by Becton, Dickinson and Company, Inc.) was added to the blood (2 mL of BD Pharm Lyse was added relative to 0.2 mL of blood). After stirring with a vortex mixer, the reaction solution was protected from light and allowed to stand at room temperature for 15 min. After centrifugation at 20° C. and 1000×g for 5 min, the supernatant was removed and suspended in 10 mL of a PBS solution. After centrifugation at 4° C. and 1000×g for 5 min, the supernatant was removed, and 1000 μL of methanol was added to each tube, followed by stirring. Thereafter, 500 μL of ultrapure water was added thereto, followed by further stirring. 600 μL of the reaction solution was divided into each of two tubes, and 400 μL of chloroform was added to each tube. The reaction solution was stirred and then centrifuged at 4° C. and 10000×g for 15 min. 400 μL of the aqueous phase was recovered and added to an ultrafiltration tube, followed by centrifugation at 12° C. and 9200×g for 2 hours. The filtrates were combined and then dried under reduced pressure at 40° C. for 2 hours by using a centrifugal evaporator. After drying, the resulting product was stored in a freezer at −80° C.
(§4) The samples obtained in (2-1) and (2-2) were returned to room temperature, and 40 μL of ultrapure water was added to the hemolysis sample and 150 μL of ultrapure water was added to the bone marrow sample. The mixture was stirred and then centrifuged at 4° C. and 21500×g for 5 min. For the hemolysis sample, 35 μL of the supernatant was transferred to a vial. For the bone marrow sample, 140 μL of the supernatant was transferred to a vial. After storage at 4° C., XMP in samples was determined in the LC-MS/MS determination instrument, LC conditions and MS/MS conditions described in Example 3 (3).
(§5) Amounts of XMP (%) were calculated assuming that amounts of XMP in a non-Compound A treated group are defined as 100%.

[2] = tested on: XMP in blood cells after hemolysis; assay: XMP in blood cells after hemolysis (Example 5); assay type: cell-based; settings: Homo sapiens, 37° C., 8 hours, non-treated = 100%; for XMP amount (% of non-treated) at 1 µg/mL: Compound A 1 μg/mL; for XMP amount (% of non-treated) at 3 µg/mL: Compound A 3 μg/mL; for XMP amount (% of non-treated) at 10 µg/mL: Compound A 10 μg/mL; for XMP amount (% of non-treated) at 30 µg/mL: Compound A 30 μg/mL; for XMP amount (% of non-treated) at 100 µg/mL: Compound A 100 μg/mL
Description: A ¾ hydrate of Compound A was used s a test compound.
450 μL of the blood collected from two healthy individuals by heparinized blood collection (Analyte A and Analyte B) was added to each tube, and 50 μL of a PBS solution of the test compound (0 μg/mL, 10 μg/mL, 30 μg/mL, 100 μg/mL, 300 μg/mL, or 1000 μg/mL in terms of Compound A) for each concentration was added to each tube. The reaction mixture was stirred in an incubator at 37° C. for 8 hours.
as §3, with “BD Pharm” for “Whole blood was collected from the postcava of animals under anesthesia by isoflurane inhalation at 1, 4, 8 or 24 hours post-dose, using a polypropylene syringe treated with an ethylenediaminetetraacetic acid disodium salt and a 25 gauge injection needle. BD Pharm”, “the blood sample obtained in (1) (2 mL” for “the blood (2 mL”, “mL of PBS.[…] After centrifugation” for “mL of a PBS solution. After centrifugation”, “an ultrafiltration tube (UltrafreeMC-PLHCC 250/pk for Metabolome Analysis (manufactured by Human Metabolome Technologies)), followed by” for “an ultrafiltration tube, followed by”
The samples obtained in (2-1) and (2-2) were returned to room temperature and 40 μL of ultrapure water was added to each sample. The mixture was stirred and centrifuged at 4° C. and 21500×g for 5 min. 35 μL of the supernatant was transferred to a vial. After storage at 4° C., XMP in samples was determined in the LC-MS/MS determination instrument, LC conditions and MS/MS conditions described in Example 3 (3).
as §5

[3] = tested on: XMP in bone marrow cells; assay: XMP in bone marrow cells of mice after oral administration; assay type: in vivo, female mice (BALB/cAJcl); settings: 100 mg/kg oral, non-treated = 100%
Description: as §1, §2
Right and left femurs of animals were collected under anesthesia by isoflurane inhalation at 1, 4, 8 or 24 hours post-dose, followed by cutting bone ends and centrifuging at 4° C. and 3000 rpm for 1 min to recover bone marrow cells. The recovered bone marrow cells were suspended in 1 mL of PBS, and the number of cells was counted. After centrifugation at 4° C. and 1000×g for 5 min, the supernatant was removed, and 1000 μL of methanol was added to each tube, followed by stirring. Thereafter, 500 μL of ultrapure water was added thereto, followed by further stirring. 600 μL of the reaction solution was divided into each of two tubes, and 400 μL of chloroform was added to each tube. The reaction solution was stirred and then centrifuged at 4° C. and 10000×g for 15 min. 400 μL of the aqueous phase was recovered and added to an ultrafiltration tube, followed by centrifugation at 12° C. and 9200×g for 2 hours. The filtrates were combined and then dried under reduced pressure at 40° C. for 2 hours by using a centrifugal evaporator. After drying, the resulting product was stored in a freezer at −80° C.
as §4, §5

[4] = read-out: Amount of XMP (%) Analyte A Hemolysis
[5] = read-out: Amount of XMP (%) Analyte B Hemolysis

## NC(=O)c1nc[nH]c1O [Compound A, 5-Hydroxy-1H-imidazole-4-carboxamide]
[1]; 1 hr post-dose
  Amount of XMP (%) Blood cell: 3.4%
[1]; 4 hr post-dose
  Amount of XMP (%) Blood cell: 7.2%
[1]; 8 hr post-dose
  Amount of XMP (%) Blood cell: 26.4%
[1]; 24 hr post-dose
  Amount of XMP (%) Blood cell: 70.7%
[2]; [4]
  XMP amount (% of non-treated) at 1 µg/mL: 60%
  XMP amount (% of non-treated) at 3 µg/mL: 45%
  XMP amount (% of non-treated) at 10 µg/mL: 37%
  XMP amount (% of non-treated) at 30 µg/mL: 27%
  XMP amount (% of non-treated) at 100 µg/mL: 16%
[2]; [5]
  XMP amount (% of non-treated) at 1 µg/mL: 51%
  XMP amount (% of non-treated) at 3 µg/mL: 37%
  XMP amount (% of non-treated) at 10 µg/mL: 25%
  XMP amount (% of non-treated) at 30 µg/mL: 18%
  XMP amount (% of non-treated) at 100 µg/mL: 10%
[3]; 1 hr post-dose
  Amount of XMP (%) Bone marrow cell: 8.7%
[3]; 4 hr post-dose
  Amount of XMP (%) Bone marrow cell: 16.5%
[3]; 8 hr post-dose
  Amount of XMP (%) Bone marrow cell: 25.9%
[3]; 24 hr post-dose
  Amount of XMP (%) Bone marrow cell: 82.7%
